# Read-outs that look alike come from different tables or passages of the source.
# How the values were obtained:
# [1] = system: patients; conditions: cited from earlier work
# [2] = system: healthy Wistar rats; experiment: Kidneys uptake of [^177Lu-DOTA^o-Tyr3]-octreotide by quantitative small animal SPECT with co-infusion of kidney protection agent; format: in vivo; conditions: vs 0.9% NaCl co-infusion
# Description: Imaging acquisition was performed after 0.5 h, 1 h, 4 h, 8 h, 24 h p.i.
# (§1) For statistical analysis Microsoft Excel 2010 and Graphpad Prism 6.05 were employed. Data are presented as median and [25% and 75% percentile] and mean and standard deviation (SD) or standard error of mean (SEM). For comparison, ordinary one way ANOVA and Tukey's multiple comparisons test, two-sample two-tailed t-test were employed. Significance was accepted with P<0.05.
# [3] = system: male Wistar rats; experiment: Ex-vivo organ distribution of [^177Lu-DOTA^o-Tyr3]-octreotide after pre-/co-injection of NaCl, Arg-Lys or PAH; format: in vivo; conditions: 5 min and 60 min p.i., N=5, with respect to NaCl infusions
# Description: All animals were pre-injected 10 min before the radiotracer injection with 1.0 mL of NaCl, Arg-Lys or PAH.
# The animals were injected and sacrificed after 5 min or 60 min. Organs and tissue of interest were harvested and measured for activity. […] The average injected activity was 4.49±0.38 MBq/kg body weight (5 min) and 159±13 MBq/kg body weight (5 min) for the SPECT and 4.19±0.57 MBq/kg body weight (60 min) or 139±8 MBq/kg body weight for the SPECT animals (60 min).
# as §1
# The results are graphically illustrated in FIG. 5.
# [4] = system: healthy Wistar rats; experiment: SPECT/CT kidney and blood (heart) radioactivity of ^177Lu-labeled DOTA compounds with co-injection of PAH or saline; format: in vivo; conditions: ^177Lu-DOTA-Affilin
# Description: (§2) The tracer distribution of the radiolabeled test compounds were performed in two distinct cohorts of healthy Wistar rats with focus on the kidney uptake/clearance and blood levels. […] Each cohort comprises at least 3 rats for statistic matters.
# Testing parameters were provided for each compound, RCP >95%.
# The percentage of injected radioactivity present in the kidneys over time was determined according to the above protocol. The results are graphically illustrated in FIG. 6.
# The percentage of injected radioactivity present in blood over time was determined according to the above protocol. The results are graphically illustrated in FIG. 7.
# [5] = system: healthy Wistar rats; experiment: PET/CT kidney and blood radioactivity of ^68Ga-labeled HBED-CC-PSMA-11 with co-injection of PAH or saline; format: in vivo; conditions: PAH 200 mg/mL vs 0.9% NaCl; 0.1, 0.5, 1, 2, 4 h; FIG. 8
# Description: as §2
# Mice were injected with diagnostic ^68Ga-labeled PSMA-11 conjugated with acyclic chelator HBED-CC, and co-injected with PAH (200 mg/mL) or saline (0.9% NaCl) as a control. The percentage of injected radioactivity present in kidney (upper lane) and blood (lower lane) over time was determined according to the above protocol. The results are graphically illustrated in FIG. 8.
# [6] = system: AR42J tumor mouse model; experiment: Comparative biodistribution of ^177Lu-DOTATOC i.v. after i.p. PAH or saline; format: in vivo, CD1 nude mice; conditions: FIG. 9
# Description: Mice (3 animals per group) were sacrificed at 0.5 h, 1 h, 2 h, and 4 h, respectively. The organs were quickly rinsed in 0.9% NaCl and dried before being weighed and counted to eliminate possible contaminating blood. […] Data from organ/tissue counting are expressed as percentage of injected dose (% ID/g)).
# [7] = system: mice; experiment: Comparative biodistribution of ^99mTc-Etarfolatide given with PAH or saline; format: in vivo; conditions: PAH IP 10 min prior + tracer diluted in PAH vs saline; after 30 min; FIG. 10
# Description: 30 mice (male and female) were randomly assigned to two groups.
# Group A: The mice were injected with ^99mTc Etarfolatide diluted in PAH (2.04 μg Etarfolatide/mouse) after having received an IP injection of PAH 10 min prior to radiotracer injection. Five time-points were assessed: 5 min, 30 min, 1 h, 2 h, 4 h (3 mice per time-point).
# Group B: The mice were injected with ^99mTc Etarfolatide diluted in saline (2.04 μg Etarfolatide/mouse) after having received an IP injection of saline 10 min prior to radiotracer injection. Five time-points were assessed: 5 min, 30 min, 1 h, 2 h, 4 h (3 mice per time-point).
# [8] = system: Laboratory Rat (Rattus norwegicus), Lewis; experiment: SPECT biodistribution of ^177Lu-PSMA I&T with kidney protection agents (PAH, Probenecid, saline); format: in vivo; conditions: for radioactivity in kidney cells (^177Lu-PSMA I&T): compared to the saline control (PAH also compared to probenecid), FIGS. 11 to 14
# Description: The protocol was executed in a way to test the radioactivity concentration of the kidneys in groups of animals injected with one TA but three different KP agents in three separate groups. Thus, the following matrix of experimental groups was formed.
# [9] = low plasma concentrations (1.0 to 2.0 mg/100 mL); average; cited from earlier work
# [10] = system: female mice; conditions: cited from earlier work
# [11] = system: rats; conditions: Natochin et al. 1989; cited from earlier work
# [12] = Radiolabel stability of ^99mTc-Etarfolatide (HPLC, ITLC-SG); format: physicochemical; conditions: 24 h post-preparation
# Description: Radiolabeling efficiency and stability was determined using: (i) Instant thin layer chromatography-silica gel (ITLC-SG) with water (Rf of ^99mTc-Etarfolatide and free pertechnetate=0.9-1.0; Rf of colloid=0.0-0.1) and acetone (Rf of free pertechnetate=0.9-1.0; Rf of colloid and ^99mTc-Etarfolatide=0.0-0.1) as the mobile phases and (ii) RP-HPLC: Solvent A: 0.1% TFA in H2O. Solvent B: 0.1% TFA in AcCN; Gradient Elution, flow rate 1 mL/min.
# On each day of experimentation, a new radiolabeling procedure was performed with approximately the same ^99mTc activity.
# The volume of the radiolabeled folate was measured to be 1300 μL, while the activity was 734 MBq (Day of experimentation: March 4th). A sample corresponding to 300 MBq (i.e. 15 MBq×20 mice) was prepared. 531 μL were taken from the radiolabeled folate, which was diluted with either 1469 μL Saline or 1469 μL PAH (2000 μL 99mTc-etarfolatide, 100 μL/15 MBq per mouse). Before injection, the sample was filtered through a […] sterile filter. The injected 15 MBq/mouse corresponds to 2.04 μg Etarfolatide/mouse (injected quantity of Etarfolatide was kept stable throughout the experiment).
# [13] = group B (PAH) compared to group A (NaCl)
# [14] = at all time points (0.5-4 h), vs saline
smiles,measurement,setting,value
NCCCC[C@H](N)C(=O)O [lysine],Kidney uptake reduction of radiolabeled octreotide,"[1]; 25 g of lysine, P<0.04",17%+/−9%
same,Kidney uptake reduction of radiolabeled octreotide,"[1]; 50 g of lysine, P<0.04",15%+/−13%
same,serum potassium levels,[1]; 75 g of lysine (Lys75) or 25 g lysine plus 25 g arginine (LysArg),rose significantly
same,Kidney uptake reduction of radiolabeled octreotide,"[1]; 75 g of lysine, P<0.001",44%+/−11%
"Nc1ccc(C(=O)NCC(=O)O)cc1 [PAH, para-aminohippuric acid]",kidney uptake reduction of [^177Lu-DOTA^o-Tyr3]-octreotide,[2]; 0.5 h post injection,50%
same,kidney uptake reduction of [^177Lu-DOTA^o-Tyr3]-octreotide,[2]; after 8 h,56%
same,kidney uptake reduction of [^177Lu-DOTA^o-Tyr3]-octreotide,[2]; after 24 h,50%
same,ex-vivo uptake of [^177Lu-DOTA^o-Tyr3]-octreotide in the kidneys,[3],significantly reduced the uptake in the kidneys
same,kidney uptake of Affilin,"[4]; PAH 200 mg/mL vs 0.9% NaCl, versus the other compounds tested",less prominently reduced
same,blood activity of Affilin (percentage of injected radioactivity in blood),"[4]; co-injected PAH 200 mg/mL vs 0.9% NaCl, FIG. 7",significant increase of blood activity
same,kidney uptake of radiolabeled compounds (percentage of injected radioactivity in kidneys),"[4]; ^177Lu-DOTA-RGD, ^177Lu-DOTA-Sargastrin, ^177Lu-DOTA-JR11, PAH 200 mg/mL vs 0.9% NaCl, 0.5, 1, 4, 24 h, FIG. 6",significant effect in reduction of kidney uptake
same,kidney uptake of ^68Ga-labeled HBED-CC conjugated PSMA-11,[5],significant reduction of kidney uptake
same,^177Lu-DOTATOC uptake in kidneys,"[6]; group B (PAH 20% i.p. 50 μL + ^177Lu-DOTATOC/PAH) vs group A (NaCl 0.9%), 0.5-4 h",significant decrease
same,^177Lu-DOTATOC level in blood,[6]; [13],significantly increased
same,^177Lu-DOTATOC level in tumor,[6]; [13],significantly increased
same,renal uptake of ^99mTc-Etarfolatide,[7],decreased renal uptake
same,renal cortex radioactivity (^177Lu-PSMA I&T),[8]; [14],reduced radioactivity
same,renal medulla radioactivity (^177Lu-PSMA I&T),[8]; [14],reduced radioactivity
same,radioactivity in kidney cells (^177Lu-PSMA I&T),[8],marked reduction of radioactivity
same,PAH cleared by the kidneys from the renal blood stream by a single circulation,[9],90%
same,intravenous LD 50,[10],7220 mg/kg
same,effect on cisplatin's nephrotoxic effects,[11],reduce cisplatin's nephrotoxic effects
Nc1nc2ncc(CNc3ccc(C(=O)N[C@H](CCC(=O)NC[C@@H]4[NH][99Tc]56(=[O])[S]C[C@@H](C(=O)O)[N]5C(=O)[C@H](CC(=O)O)[N]6C4=O)C(=O)O)cc3)nc2c(=O)[nH]1 [^99mTc-Etarfolatide],Stability of radiolabel by HPLC,[12],no loss of radiolabel
NS(=O)(=O)c1cc(C(=O)O)c(NCc2ccco2)cc1Cl [fursosemide],effect on cisplatin's nephrotoxic effects,[11],reduce cisplatin's nephrotoxic effects
CCCN(CCC)S(=O)(=O)c1ccc(C(=O)O)cc1 [Probenecid],radioactivity in kidney cells (^177Lu-PSMA I&T),[8],no effect
C=C(CC)C(=O)c1ccc(OCC(=O)O)c(Cl)c1Cl [ethacrynic acid],effect on cisplatin's nephrotoxic effects,[11],reduce cisplatin's nephrotoxic effects
C[N+](C)(C)CCO.[Cl-] [Choline chloride],effect on cisplatin's nephrotoxic effects,[11],reduce cisplatin's nephrotoxic effects
